Measurements reported in US5134073A, “Microbiologically produced N-acetyl-2,3-didehydroleucine acylase” (Degussa Aktiengesellschaft, priority 1989, dated 1992).
Several values for one entry are separate records, joined by “and”; a condition that tells them apart may be missing. Equal entries are not always repeated. Where two headings read alike, the source gives them in different places. Where a SMILES comes first, the peptide text is derived from it.

What was measured:
[1] = test system: N-acetyldehydroleucine acylase; assay: Hydrolysis of other compounds by the acylase (TLC / amino acid analyzer); type: biochemical, Zoogloea ramigera; conditions: for rel. activity (%): 50 mM test substrate, 0.1 M tris/HCl pH 9, 25° C., hydrolysis rate with N-acetyldehydroleucine = 100%
Method: A qualitative check was performed for 81 compounds to see whether they are accepted as substrate by the acylase. The test batches contained:
After 16 and 40 hours incubation at 25° C., specimens were taken from the batches, most of which specimens were analyzed in comparison to substrate standards by means of thin-layer chromatography (70% (v/v) ethanol as mobile solvent). The detection took place with ninhydrin spray reagent. A few specimens were tested in addition or alternatively with the amino acid analyzer.
The amino acids produced from the amino acid amides by means of the action of acylase were detected quantitatively with the amino acid analyzer.

[2] = test system: N-acetyldehydroleucine acylase; assay: Influence of additive substances on the splitting of N-acetyldehydroleucine under standard conditions; type: biochemical, Zoogloea ramigera
Method: The mixing together of the batches, their storage and the taking of specimens took place under sterile conditions. The standard conditions for the enzyme test were:
20 mM N-Acetyldehydroleucine

ADL acylase = assay: Stability of the acylase in the presence of different anions; type: physicochemical, Zoogloea ramigera; conditions: sodium salt 0.5 M in 50 mM glycine pH 11, 20° to 25° C., raw extract; 500000 µM
Method: The influence of different anions on the stability of ADL acylase was investigated. Raw extract which had been compounded with glycerin to 43.5% (w/v) was diluted 1 : 10 with 0.5 molar solutions of various sodium salts in 50 mM glycine (pH 11) and stored at room temperature (20° to 25° C.). Specimens were taken from time-to-time and their enzymatic activity measured under standard conditions, as described in Example 8a).

[3] = test system: N-acetyldehydroleucine acylase; assay: Acylase activity versus concentration of N-acetyldehydroamino acids (kinetic data); type: biochemical, Zoogloea ramigera; conditions: glycine, 0.1 M, pH 9, 30° C.
Method: The activity of the acylase was determined under standard conditions (cf. Example 8a)) with various N-acetyldehydroamino acids in concentrations of 0.1 to 300 mM. A second series of measurements with N-acetyldehydroleucinein the above-indicated concentration range was placed in 0.1 M tris/phosphoric acid buffer.
Reaction conditions: 0.1 M glycine, pH 9, 30° C.
Adaptation to the equation v = Vmax. · S/(KM + S +

Zoogloea ramigera ABI 1 = assay: Induction of N-acetyldehydroleucine acylase in agitated cultures, changing of the inductor; type: cell-based; conditions: inductor 3 g/l, agitated culture, pH 7
Method: All raw extracts were tested at least with N-acetyldehydroleucine and N-acetyldehydroisoleucine but, in most cases, also with N-acetyldehydrovaline. […] The enzymatic reaction was stopped in the batches incubated at 30° C. by adding 0.25 ml color reagent (1 g/l 2,4-dinitrophenyl hydrazine in 2 N HCl). After further incubation at 30° C. for 10 minutes with N-acetyldehydroleucine as substrate or 25 minutes with the isoleucine or valine derivative, 1.5 ml 2,5 N NaOH was added.
The keto acid released by the enzymatic hydrolysis forms, together with the 2,4-dinitrophenyl hydrazine, a Schiff's base colored red in the alkaline whose absorption was measured in a spectral photometer at 442 nm against a batch without N-acetyldehydroamino acid (=enzyme blank). A blank reading was deducted from these extinction values which blank reading is obtained if the extinction value of a batch only with buffer (=buffer blank) is deducted from that of a batch with buffer and N-acetyldehydroamino acid but without raw extract (=substrate blank). The concentration of the product produced was determined with a calibrated reference for the corresponding keto acid. The enzyme activity is indicated in international units. One unit (U) corresponds to an amount of 1 μmole released keto acid per minute.
Different substances were added in a concentration of 3 g/l as inductors into agitated cultures with a medium of mineral salt solution (cf. Example 1) with 0.5 g/l yeast extract and 0.5 g/l peptone at pH 7. The technology for agitated cultures is described in Example 1 a).

| rel. activity (%) [1] | Molecule | % Residual activity ([2]; inhibitor 1 mM) | % Residual activity ([2]; inhibitor 10 mM) | other results |
| --- | --- | --- | --- | --- |
|  | O=C(O)c1cc[c]([Hg][OH])cc1 [pCMB, parahydroxy mercury benzoate] | 104% | 98% |  |
| 0% | CN[C@@H](CCC(=O)O)C(=O)O [N-methyl-L-glutamic acid] |  |  |  |
|  | O=C(O)CI [iodine acetate] |  |  | % Residual activity [2]: 76% and 49% |
|  | OCCS [MeSH, mercaptoethanol] | 93% | 99% | % Residual activity ([2]; inhibitor 100 mM): 81% |
| 6.80% | CC(C)C[C@H](N)C(N)=O [L-leucine amide] |  |  | Substrate specificity: hydrolysis by the acylase [1]: hydrolyzes |
|  | Cl [Chloride] |  |  | % Residual activity after 3 days (ADL acylase): 35%; % Residual activity after 6 days (ADL acylase): 0%; % Residual activity after 21 days (ADL acylase): 0% |
|  | N=C(N)c1ccc(N)cc1 [pABA, paraaminobenzamidine] |  | 89% | % Residual activity ([2]; inhibitor 100 mM): 54%; % Residual activity ([2]; inhibitor 200 mM): 0% |
|  | C=C(NC(C)=O)C(=O)O [ADA, 2-acetylamino acrylic acid] |  |  | Substrate specificity: hydrolysis by the acylase [1]: hydrolyzes; % Vmax [3]: 90%; Km [3]: 6.68 mM |
|  | N[C@@H]1CON=C1O [Cycloserine] | 111% | 105% |  |
|  | [Cl-].[Cl-].[Mg+2] [MgCl2] | 95% | 88% |  |
| 3.82% | CC(C)C[C@@H](N)C(N)=O [D-leucine amide] |  |  | Substrate specificity: hydrolysis by the acylase [1]: hydrolyzes |
|  | [Cl][Mn][Cl] [MnCl2] | 99% | 87% |  |
|  | CC(=O)N[C@H](C(=O)O)C(C)C [N-acetyl valine] |  |  | Substrate specificity: hydrolysis by the acylase [1]: not |
|  | c1cnc2c(c1)ccc1cccnc12 [Phenanthroline] | 94% | 52% |  |
|  | O=C(O)c1cc[c]([Hg][OH])cc1 [pOHMB, parahydroxy mercuric benzoate] | 93% | 91% |  |
| 0.35% | C[C@H](N)C(N)=O [L-alanine amide] |  |  |  |
| 0% | CC(C)CC(NC(=O)c1ccccc1)C(=O)O (racemic) [N-benzoyl-D,L-leucine] |  |  |  |
| 0% | NC(=O)N[C@@H](Cc1ccccc1)C(=O)O [N-carbamoyl-L-phenylalanine] |  |  |  |
|  | O[C@H](CS)[C@H](O)CS (racemic) [Dithiothreitol] | 103% | 58% |  |

| rel. activity (%) [1] | Molecule | % Residual activity ([2]; inhibitor 1 mM) | % Residual activity ([2]; inhibitor 10 mM) | other results |
| --- | --- | --- | --- | --- |
|  | CC(=O)NC(Cc1c[nH]c2ccccc12)C(=O)O (racemic) [Ac-D,L-tryptophan] |  |  | Acylase activity after 60 hours of incubation as a function of the inductor (Zoogloea ramigera ABI 1): 0.018 U/mg |
|  | [Ca+2].[Cl-].[Cl-] [CaCl2] |  | 93% |  |
|  | NC(=O)[C@@H](N)Cc1c[nH]c2ccccc12 [tryptophane amide] |  |  | Substrate specificity: hydrolysis by the acylase [1]: split with a reaction rate on the order like that achieved with N-acetyldehydroamino acids |
|  | CC(=O)N[C@@H](CC(C)C)C(=O)O [Ac-L-leucine, N-acetyl-L-leucine] |  |  | Acylase activity after 60 hours of incubation as a function of the inductor (Zoogloea ramigera ABI 1): 0.018 U/mg |
| 0% | CC(C)[C@H](NC(N)=O)C(=O)O [N-carbamoyl-L-valine] |  |  |  |
|  | CC(=O)NC(Cc1ccc(O)cc1)C(=O)O (racemic) [Ac-D,L-tyrosine] |  |  | Acylase activity after 60 hours of incubation as a function of the inductor (Zoogloea ramigera ABI 1): 0.011 U/mg |
|  | NC(=O)[C@H](N)Cc1c[nH]c2ccccc12 [D-tryptophane amide] |  |  | Substrate specificity: hydrolysis by the acylase [1]: hydrolyzes |
| 0% | CC(=O)N[C@@H](Cc1ccccc1)C(=O)O [N-acetyl-L-phenylalanine] |  |  |  |
| 0% | C[C@H](N)C(=O)N[C@@H](Cc1ccccc1)C(N)=O [L-alanyl-L-phenylalanine amide] |  |  |  |
|  | NNC(N)=O [Semicarbazide] | 113% | 93% |  |
| 0% | CC(=O)NC(CC(C)C)C(=O)O (racemic) [N-acetyl-D,L-leucine] |  |  |  |
|  | [Cl-].[Cl-].[Co+2] [CoCl2] | 91% | 85% |  |
|  | O=CO [Formate] |  |  | % Residual activity after 3 days (ADL acylase): 76%; % Residual activity after 6 days (ADL acylase): 63%; % Residual activity after 21 days (ADL acylase): 2% |
|  | O=C(O)CN(CCN(CC(=O)O)CC(=O)O)CC(=O)O [EDTA] |  |  | % Residual activity [2]: 95% |
|  | c1ccc(-c2ccccn2)nc1 [Bipyridine] | 91% | 70% |  |
| 0% | CNC(CC(C)C)C(=O)O (racemic) [N-methyl-D,L-leucine] |  |  |  |
|  | CC(=O)N[C@@H](CC(C)C)C(=O)O [N-acetyl leucine] |  |  | Substrate specificity: hydrolysis by the acylase [1]: not |
|  | CC(=O)O [Acetate] |  |  | % Residual activity after 3 days (ADL acylase): 86%; % Residual activity after 6 days (ADL acylase): 81%; % Residual activity after 21 days (ADL acylase): 6% |
|  | CN(C)C(=O)Oc1cccc([N+](C)(C)C)c1 [Neostigmine] | 102% | 82% | % Residual activity ([2]; inhibitor 100 mM): 0% |

| rel. activity (%) [1] | Molecule | % Residual activity ([2]; inhibitor 1 mM) | % Residual activity ([2]; inhibitor 10 mM) | other results |
| --- | --- | --- | --- | --- |
|  | [N-]=[N+]=[N-].[Na+] [NaN3] | 105% | 103% |  |
|  | [Cl][Hg][Cl] [HgCl2] | 84% | 70% |  |
|  | O=S(=O)([O-])[O-].[Cu+2] [CuSO4] | 87% | 83% |  |
|  | O=S(=O)(O)O [Sulfate] |  |  | % Residual activity after 3 days (ADL acylase): 89%; % Residual activity after 6 days (ADL acylase): 94%; % Residual activity after 21 days (ADL acylase): 15% |
|  | NC(=O)CI [iodine acetamide] | 104% | 74% |  |
|  | O=S(=O)(F)Cc1ccccc1 [PMSF, phenylmethane sulfonyl fluoride] |  |  | % Residual activity ([2]; inhibitor 0.0001 mM): 10%; % Residual activity ([2]; inhibitor 0.01 mM): 0%; Inhibition of the acylase ([2]; phenylmethane sulfonyl fluoride still in micromolar concentration): sharply inhibit; Influence of inhibitors on the acylase ([2]; phenylmethane sulfonylfluoride: 0.001 mM): exert an inhibitory action |
| 4.69% | CSCC[C@H](N)C(N)=O [L-methionine amide] |  |  | Substrate specificity: hydrolysis by the acylase [1]: hydrolyzes |
| 0% | CC(=O)NCC(=O)O [N-acetyl glycine] |  |  |  |
|  | O=C(O)CC(O)(CC(=O)O)C(=O)O [Citrate] | 99% | 84% |  |
|  | Phosphate |  |  | % Residual activity after 3 days (ADL acylase): 96%; % Residual activity after 6 days (ADL acylase): 105%; % Residual activity after 21 days (ADL acylase): 27% |
| 0% | COC(=O)NC(CC(C)C)C(=O)O (racemic) [N-methoxycarbonyl-D,L-leucine] |  |  |  |
| 0% | CC(=O)N[C@@H](C)C(=O)N[C@H](C(=O)O)C(C)C [N-acetyl-L-alanyl-L-valine] (Ac-Ala-Val-OH) |  |  |  |
|  | N[C@@H](CCC(=O)N[C@@H](CS)C(=O)NCC(=O)O)C(=O)O [Glutathione reduced] |  |  | % Residual activity [2]: 95% |
| 0% | N[C@@H](Cc1c[nH]c2ccccc12)C(=O)NCC(=O)O [L-tryptophyl glycine] (H-Trp-Gly-OH) |  |  |  |
| 0% | COC(=O)NC(C(=O)O)C(C)C (racemic) [N-methoxycarbonyl-D,L-valine] |  |  |  |
|  | [Cl-].[Cl-].[Zn+2] [ZnCl2] | 95% | 82% |  |
| 0.46% | C[C@@H](N)C(N)=O [D-alanine amide] |  |  |  |
| 20.4% | NC(=O)[C@@H](N)Cc1c[nH]c2ccccc12 [L-tryptophane amide] |  |  | Substrate specificity: hydrolysis by the acylase [1]: hydrolyzes |

| Molecule | rel. activity (%) [1] | % Residual activity ([2]; inhibitor 1 mM) | % Residual activity ([2]; inhibitor 10 mM) | other results |
| --- | --- | --- | --- | --- |
| C[C@H](N)C(=O)NCC(=O)O [L-alanyl glycine] (H-Ala-Gly-OH) | 0% |  |  |  |
| CC(C)C[C@H](NC(=O)[C@H](C)N)C(=O)O [L-alanyl-L-leucine] (H-Ala-Leu-OH) | 0% |  |  |  |
| CC(C)C[C@H](N)C(=O)NCC(=O)O [L-leucyl glycine] (H-Leu-Gly-OH) | 0% |  |  |  |
| CC(C)C[C@H](NC(=O)CN)C(=O)O [Glycyl-L-leucine] | 0% |  |  |  |
